This is an account of results in ChEMBL document CHEMBL5356957, “Design, synthesis, biological evaluation and molecular docking of alkoxyaurones as potent pancreatic lipase inhibitors” (Bioorg Med Chem Lett, 2024).

Assay [1] concerns the target T1, Pancreatic triacylglycerol lipase (Homo sapiens, UniProt P16233).
T1 sequence (P16233 whole entry): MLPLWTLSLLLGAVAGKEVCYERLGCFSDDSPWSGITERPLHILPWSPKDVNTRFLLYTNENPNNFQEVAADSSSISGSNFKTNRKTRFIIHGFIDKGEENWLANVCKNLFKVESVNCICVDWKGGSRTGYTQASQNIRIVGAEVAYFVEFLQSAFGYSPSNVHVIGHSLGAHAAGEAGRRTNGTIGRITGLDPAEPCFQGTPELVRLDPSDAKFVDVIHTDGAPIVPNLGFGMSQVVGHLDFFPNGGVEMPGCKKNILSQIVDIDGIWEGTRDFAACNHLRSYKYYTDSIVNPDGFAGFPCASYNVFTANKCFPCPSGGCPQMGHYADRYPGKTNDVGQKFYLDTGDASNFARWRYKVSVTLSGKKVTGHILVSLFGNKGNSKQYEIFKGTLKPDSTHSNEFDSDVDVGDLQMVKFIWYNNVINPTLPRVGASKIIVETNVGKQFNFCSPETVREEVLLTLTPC
In words: Inhibition of pancreatic lipase (unknown origin) by spectrophotometeric analysis.

The target in assay [2] is T2, Pancreatic triacylglycerol lipase (Homo sapiens) (UniProt P16233).
T2 sequence (whole entry): T1 sequence (P16233 whole entry)
Description: Binding affinity to pancreatic lipase (unknown origin) assessed as Stem-Volmer quenching constant by fluorescence quenching based spectrophotometer analysis

The target in assay [3] is T2, Pancreatic triacylglycerol lipase (Homo sapiens). This is another data set of the same source.
Description: Binding affinity to pancreatic lipase (unknown origin) assessed as quenching constant by fluorescence quenching based spectrophotometer analysis

A word on the IC50: it is the concentration at which inhibition is half-maximal. The low end stands for greater potency in that assay, the high end for weaker potency in that assay. In assay [1], `O=C1/C(=C/c2ccccc2)Oc2cc(O)cc(O)c21` showed an IC50 of 58.8 µM. Besides, in assay [2], the KSV was 7.16 10^4L/mol. Also, the Kq in assay [3] is 4.5 10^13L/mol/s.

In the case of `O=c1c(O)c(-c2ccc(O)c(O)c2)oc2cc(O)cc(O)c12`, in assay [2], the KSV is 13.3 10^4L/mol. Moreover, the Kq in assay [3] was 8.35 10^13L/mol/s.
